Results: ChEMBL document CHEMBL3885861, “Open TG-GATES”

Organism: Rattus norvegicus
Assay: Open TG-GATES - Regimen: Daily Repeat
Type: toxicity, organism-based, Sprague-Dawley
Set-up: regimen Daily Repeat, gender Male, age 6 weeks
Conditions: in vivo, po, route gavage; for Bas / Eos / Fbg / Hb / Ht / MCHC / MCV / Mono / Neu / Plat / RBC / Ret / WBC: tissue Blood; for KIDNEY_L / KIDNEY_R / KIDNEY_TOTAL: tissue Kidney; for LIVER: tissue Liver; for ALP / AST / BUN / CRE / DBIL / GLC / K / LDH / Na / PL / RALB / TBIL / TC / TG / TP / gamma-GTP / IP: tissue Plasma
[1] = 0 mg/kg, 72 h, dose level Control, time 3 day
[2] = 0 mg/kg, […], dose level Control, time 7 day
[3] = 0 mg/kg, […], dose level Control, time 14 day
[4] = 0 mg/kg, […], dose level Control, time 28 day
[5] = 20 mg/kg, 72 h, dose level Low, time 3 day
[6] = 20 mg/kg, […], dose level Low, time 7 day
[7] = 20 mg/kg, […], dose level Low, time 14 day
[8] = 20 mg/kg, […], dose level Low, time 28 day

CO[C@H]1/C=C/O[C@@]2(C)Oc3c(C)c(O)c4c(O)c(c(/C=N/N5CCN(C)CC5)c(O)c4c3C2=O)NC(=O)/C(C)=C\C=C\[C@H](C)[C@H](O)[C@@H](C)[C@@H](O)[C@@H](C)[C@H](OC(C)=O)[C@@H]1C [RIFAMPIN]
TERMINAL_BW [1]: 242.1 g
Bas [1]: 0%
Eos [1]: 1%
Fbg [1]: 239 mg/dL
Hb [1]: 13.9 g/dL
Ht [1]: 42%
MCHC [1]: 33.1%
MCV [1]: 63.9 fL
Mono [1]: 7.2%
Neu [1]: 13.8%
Plat [1]: 126 x10_4/uL
RBC [1]: 657.6 x10_4/ul
Ret [1]: 6.4%
WBC [1]: 129.1 x10_2/uL
KIDNEY_L [1]: 1 g
KIDNEY_R [1]: 1 g
KIDNEY_TOTAL [1]: 2 g
LIVER [1]: 12.4 g
ALP [1]: 966.4 IU/L
AST [1]: 62.4 IU/L
BUN [1]: 19 mg/dL
CRE [1]: 0.6 mg/dL
DBIL [1]: 0.004 mg/dL
GLC [1]: 199.2 mg/dL
K [1]: 5 meq/L
LDH [1]: 110.6 IU/L
Na [1]: 139.8 meq/L
PL [1]: 157 mg/dL
RALB [1]: 3.7 g/dL
TBIL [1]: 0.3 mg/dL
TC [1]: 83.8 mg/dL
TG [1]: 112.8 mg/dL
TP [1]: 6.1 g/dL
gamma-GTP [1]: 2 IU/L
TERMINAL_BW [2]: 275.2 g
TERMINAL_BW [3]: 316.4 g
TERMINAL_BW [4]: 390.1 g
Bas [2]: 0%
Eos [2]: 0%
Fbg [2]: 231.8 mg/dL
Hb [2]: 14.1 g/dL
Ht [2]: 42.8%
MCHC [2]: 33.1%
MCV [2]: 63.2 fL
Mono [2]: 6.2%
Neu [2]: 13.6%
Plat [2]: 107.2 x10_4/uL
RBC [2]: 677.2 x10_4/ul
Ret [2]: 5.8%
WBC [2]: 122.2 x10_2/uL
Bas [3]: 0%
Eos [3]: 0.8%
Fbg [3]: 235.6 mg/dL
Hb [3]: 15 g/dL
Ht [3]: 45%
MCV [3]: 59.6 fL
Mono [3]: 6%
Neu [3]: 11.8%
Plat [3]: 112.5 x10_4/uL
RBC [3]: 754.8 x10_4/ul
Ret [3]: 3.5%
WBC [3]: 153.6 x10_2/uL
Bas [4]: 0%
Eos [4]: 0.8%
Hb [4]: 15.7 g/dL
Ht [4]: 47%
MCHC [4]: 33.4%
MCV [4]: 58.9 fL
Mono [4]: 3%
Neu [4]: 12.4%
RBC [4]: 799.6 x10_4/ul
Ret [4]: 2.2%
KIDNEY_L [2]: 1.1 g
KIDNEY_R [2]: 1.1 g
KIDNEY_TOTAL [2]: 2.3 g
KIDNEY_L [3]: 1.2 g
KIDNEY_R [3]: 1.2 g
KIDNEY_TOTAL [3]: 2.4 g
KIDNEY_L [4]: 1.4 g
KIDNEY_R [4]: 1.4 g
KIDNEY_TOTAL [4]: 2.7 g
LIVER [2]: 13.1 g
LIVER [3]: 13.9 g
LIVER [4]: 16 g
ALP [2]: 827 IU/L
AST [2]: 68 IU/L
BUN [2]: 17.8 mg/dL
CRE [2]: 0.6 mg/dL
DBIL [2]: 0.004 mg/dL
GLC [2]: 198.6 mg/dL
IP [2]: 8.3 mg/dL
K [2]: 4.9 meq/L
LDH [2]: 108.4 IU/L
Na [2]: 140.6 meq/L
PL [2]: 150 mg/dL
RALB [2]: 3.9 g/dL
TBIL [2]: 0.3 mg/dL
TC [2]: 74.6 mg/dL
TG [2]: 132.6 mg/dL
TP [2]: 6.1 g/dL
gamma-GTP [2]: 1.8 IU/L
ALP [3]: 668.4 IU/L
AST [3]: 55.2 IU/L
BUN [3]: 18.2 mg/dL
CRE [3]: 0.6 mg/dL
DBIL [3]: 0.066 mg/dL
GLC [3]: 202.8 mg/dL
IP [3]: 7.9 mg/dL
K [3]: 5 meq/L
LDH [3]: 78.4 IU/L
Na [3]: 139.6 meq/L
PL [3]: 154.2 mg/dL
RALB [3]: 3.9 g/dL
TBIL [3]: 0.3 mg/dL
TC [3]: 68.6 mg/dL
TG [3]: 205.8 mg/dL
TP [3]: 6.3 g/dL
gamma-GTP [3]: 1.4 IU/L
ALP [4]: 557.2 IU/L
AST [4]: 56.4 IU/L
BUN [4]: 20.2 mg/dL
CRE [4]: 0.6 mg/dL
DBIL [4]: 0.014 mg/dL
GLC [4]: 179.8 mg/dL
IP [4]: 7.2 mg/dL
K [4]: 4.9 meq/L
LDH [4]: 77.2 IU/L
Na [4]: 140.6 meq/L
PL [4]: 157.4 mg/dL
RALB [4]: 4 g/dL
TBIL [4]: 0.3 mg/dL
TC [4]: 79.6 mg/dL
TG [4]: 165 mg/dL
TP [4]: 6.3 g/dL
gamma-GTP [4]: 0.8 IU/L
TERMINAL_BW [5]: 234.9 g
Bas [5]: 0%
Eos [5]: 0.8%
Fbg [5]: 239.4 mg/dL
Hb [5]: 14 g/dL
Ht [5]: 42.3%
MCHC [5]: 33%
MCV [5]: 62.8 fL
Mono [5]: 8%
Neu [5]: 7.2%
Plat [5]: 125.9 x10_4/uL
RBC [5]: 673.8 x10_4/ul
Ret [5]: 5.5%
WBC [5]: 119.2 x10_2/uL
KIDNEY_L [5]: 1 g
KIDNEY_R [5]: 1 g
KIDNEY_TOTAL [5]: 2 g
LIVER [5]: 10.7 g
ALP [5]: 787.6 IU/L
AST [5]: 66.8 IU/L
BUN [5]: 16 mg/dL
CRE [5]: 0.5 mg/dL
DBIL [5]: 0.002 mg/dL
GLC [5]: 194.8 mg/dL
IP [5]: 8.8 mg/dL
K [5]: 4.6 meq/L
LDH [5]: 113.2 IU/L
Na [5]: 139.4 meq/L
RALB [5]: 3.6 g/dL
TBIL [5]: 0.3 mg/dL
TC [5]: 73.4 mg/dL
TG [5]: 66 mg/dL
TP [5]: 5.8 g/dL
gamma-GTP [5]: 1.8 IU/L
TERMINAL_BW [6]: 264.5 g
TERMINAL_BW [7]: 308 g
TERMINAL_BW [8]: 375.5 g
Bas [6]: 0%
Eos [6]: 0.8%
Fbg [6]: 232.6 mg/dL
Hb [6]: 14 g/dL
Ht [6]: 41.7%
MCHC [6]: 33.4%
MCV [6]: 63.4 fL
Mono [6]: 4.8%
Neu [6]: 9%
Plat [6]: 115.2 x10_4/uL
RBC [6]: 658 x10_4/ul
Ret [6]: 5.9%
WBC [6]: 129.4 x10_2/uL
Bas [7]: 0%
Eos [7]: 0.8%
Fbg [7]: 227.2 mg/dL
Hb [7]: 14.7 g/dL
Ht [7]: 44%
MCHC [7]: 33.4%
MCV [7]: 60.7 fL
Mono [7]: 2.8%
Neu [7]: 6%
Plat [7]: 121.9 x10_4/uL
RBC [7]: 726.2 x10_4/ul
Ret [7]: 3.5%
WBC [7]: 131.2 x10_2/uL
Bas [8]: 0%
Eos [8]: 1%
Fbg [8]: 225 mg/dL
Hb [8]: 15.6 g/dL
Ht [8]: 46.4%
MCHC [8]: 33.5%
MCV [8]: 56.7 fL
Mono [8]: 4.4%
Neu [8]: 7.6%
Plat [8]: 107.2 x10_4/uL
RBC [8]: 819 x10_4/ul
Ret [8]: 2%
WBC [8]: 119 x10_2/uL
KIDNEY_L [6]: 1.1 g
KIDNEY_R [6]: 1.1 g
KIDNEY_TOTAL [6]: 2.2 g
KIDNEY_L [7]: 1.2 g
KIDNEY_R [7]: 1.3 g
KIDNEY_TOTAL [7]: 2.5 g
KIDNEY_L [8]: 1.3 g
KIDNEY_R [8]: 1.3 g
KIDNEY_TOTAL [8]: 2.6 g
LIVER [6]: 12.2 g
LIVER [7]: 13.1 g
LIVER [8]: 14.5 g
ALP [6]: 835.8 IU/L
AST [6]: 65.4 IU/L
BUN [6]: 16.8 mg/dL
CRE [6]: 0.5 mg/dL
DBIL [6]: 0.016 mg/dL
GLC [6]: 193.4 mg/dL
IP [6]: 7.7 mg/dL
K [6]: 5.1 meq/L
LDH [6]: 96.6 IU/L
Na [6]: 138.8 meq/L
PL [6]: 156.2 mg/dL
RALB [6]: 3.8 g/dL
TBIL [6]: 0.3 mg/dL
TC [6]: 80.6 mg/dL
TG [6]: 120.4 mg/dL
TP [6]: 5.8 g/dL
gamma-GTP [6]: 1.8 IU/L
ALP [7]: 712.2 IU/L
AST [7]: 56.6 IU/L
BUN [7]: 18.6 mg/dL
CRE [7]: 0.5 mg/dL
DBIL [7]: 0.04 mg/dL
GLC [7]: 190.2 mg/dL
IP [7]: 7.7 mg/dL
K [7]: 4.9 meq/L
LDH [7]: 75.8 IU/L
Na [7]: 140 meq/L
PL [7]: 159.8 mg/dL
RALB [7]: 3.9 g/dL
TBIL [7]: 0.3 mg/dL
TC [7]: 77.4 mg/dL
TG [7]: 168.2 mg/dL
TP [7]: 6.1 g/dL
gamma-GTP [7]: 0.8 IU/L
ALP [8]: 548.6 IU/L
AST [8]: 59.4 IU/L
BUN [8]: 18.6 mg/dL
CRE [8]: 0.6 mg/dL
DBIL [8]: 0.016 mg/dL
GLC [8]: 187.8 mg/dL
IP [8]: 7.1 mg/dL
K [8]: 4.3 meq/L
LDH [8]: 84.8 IU/L
Na [8]: 141.2 meq/L
PL [8]: 146.8 mg/dL
RALB [8]: 4.1 g/dL
TBIL [8]: 0.3 mg/dL
TC [8]: 76.8 mg/dL
TG [8]: 121.4 mg/dL
TP [8]: 6.3 g/dL
gamma-GTP [8]: 1.6 IU/L
